For orientation: inhibition means the change of the read-out against control, counted positive when it falls.

We go through four compounds from patent publication US9060511B2, “Compositions of dibromomalanomide and their use as biocides” (Rohm and Haas Company, priority 2010, dated 2015).

The subject of assay [1] is consortium of bacteria: mixture of Pseudomonas aeruginosa, Klebsiella pneumoniae, Staphylococcus aureus, and Bacillus subtilis. Description: Growth inhibition assay (microtiter plate-based synergy assay). As to conditions: for I90 (concentration required to inhibit at least 90% of bacterial growth when used alone) / I90 (concentration required for at least 90% inhibition of growth): active alone, 37° C., 24 hr; for I90 (concentration required for at least 90% inhibition of growth): Example 2; for % Inhibition of Growth: Example 3. The assay is classed as cell-based. The source says:
(§1) The results provided in the Examples are generated using a growth inhibition assay. Details of each assay are provided below.
(§2) Growth Inhibition Assay. The growth inhibition assay used in the Examples measures inhibition of growth (or lack thereof) of a microbial consortium Inhibition of growth can be the result of killing of the cells (so no growth occurs), killing of a significant portion of the populations of cells so that regrowth requires a prolonged time, or inhibition of growth without killing (stasis). Regardless of the mechanism of action, the impact of a biocide (or combination of biocides) can be measured over time on the basis of an increase in the size of the community.
(§3) The assay measures the efficacy of one or more biocides at preventing growth of a consortium of bacteria in a dilute mineral salts medium. The medium contains (in mg/l) the following components: FeCl3.6H2O (1); CaCl2.2H2O (10); MgSO4.7H2O (22.5); (NH4)2SO4 (40); KH2PO4 (10); K2HPO4 (25.5); Yeast Extract (10); and glucose (100). After all components are added to deionized water, the pH of the medium is adjusted to 7.5. Following filter sterilization, aliquots are dispensed in 100 μl quantities to sterile microtiter plate wells. Dilutions of 2,2-dibromomalonamide (“DBMAL”) and/or “Biocide B” are then added to the microtiter plate. After preparing the combinations of actives as illustrated below, each well is inoculated with 100 μl of a cell suspension containing ca. 1×10^6 cells per milliliter of a mixture of Pseudomonas aeruginosa, Klebsiella pneumoniae, Staphylococcus aureus, and Bacillus subtilis. The final total volume of medium in each well is […]. […] The resulting matrix allows testing of eight concentrations of each active and 64 combinations of actives in the ratios (of actives).
(§4) Controls (not shown) contain the medium with no biocide added.
(§5) Immediately after the microtiter plates are prepared, the optical density (OD) readings for each well is measured at 580 nm and the plates are then incubated at 37° C. for 24 hr. After the incubation period, the plates are gently agitated before OD580 values are collected. The OD580 values at T0 are subtracted from T24 values to determine the total amount of growth (or lack thereof) that occurs. These values are used to calculate the percent inhibition of growth caused by the presence of each biocide and each of the 64 combinations. A 90% inhibition of growth (I90) value is used as a threshold for calculating synergy index (SI) values with the following equation: Synergy Index=MDBMAL/CDBMAL+MB/CB
(§6) where • CDBMAL: Concentration of DBMAL required to inhibit at least 90% of bacterial growth when used alone • CB: Concentration of biocide (B) required to inhibit at least 90% of bacterial growth when used alone. • MDBMAL: Concentration of DBMAL required to inhibit at least 90% of bacterial growth when used in combination with biocide (B). • MB: Concentration of biocide (B) required to inhibit at least 90% of bacterial growth when used in combination with DBMAL The SI values are interpreted as follows: • SI<1: Synergistic combination • SI=1: Additive combination • SI>1: Antagonistic combination
(§7) In the Examples below, the amounts of biocides in the solution are measured in mg per liter of solution (mg/l). Since solution densities are approximately 1.00, the mg/1 measurement corresponds to weight and can be expressed as parts per million (ppm). Both units may therefore be used interchangeably in the Examples.

Test in assay [2]: as above
The assay is classed as cell-based. The conditions noted are these: Example 3.
Excerpt: as §1, §2, §3, §4, §5, §6, §7

Structures are written as SMILES.

Regarding `[Ag]` [Ag, silver], the “I90 (concentration required to inhibit at least 90% of bacterial growth when used alone)” value in assay [1] (Example 1 Experiment 1) worked out at 0.063 mg/L; in assay [1] (Example 1 subsequent experiment (Experiment 2)) it was 0.125 ppm.
As for `[Cu]` [Cu, copper], the “I90 (concentration required for at least 90% inhibition of growth)” value in assay [1] was 0.78 mg/L.
Take `NC(=O)C(Br)(Br)C(N)=O` [DBMAL, 2,2-dibromomalonamide]: the inhibition at 0.2 µg/mL in assay [2] (DBMAL Alone 0.20 mg/l) amounted to 2%. Also, the inhibition at 0.39 µg/mL in assay [2] (DBMAL Alone 0.39 mg/l) was found to be 0%. In assay [2] (DBMAL Alone 0.78 mg/l), the inhibition at 0.78 µg/mL came to 4%. Further, in assay [2] (DBMAL Alone 1.56 mg/l), the inhibition at 1.56 µg/mL amounted to 9%. The inhibition at 3.13 µg/mL in assay [2] (DBMAL Alone 3.13 mg/l) was found to be 21%. Further, in assay [2] (DBMAL Alone 6.25 mg/l), the inhibition at 6.25 µg/mL turned out to be 29%. The inhibition at 12.5 µg/mL in assay [2] (DBMAL Alone 12.50 mg/l) is 100%. In assay [2] (DBMAL Alone 25.00 mg/l), the inhibition at 25 µg/mL turned out to be 100%. Moreover, the “I90 (concentration required to inhibit at least 90% of bacterial growth when used alone)” value in assay [1] (Example 1 Experiment 1) was 12.5 mg/L. In assay [1], the “I90 (concentration required for at least 90% inhibition of growth)” value was determined as 12.5 mg/L.
On to `[Zn]` [Zn, zinc, reference compound], for which the “% Inhibition of Growth” value in assay [1] (Zn Alone 19.5 mg/l) amounted to 19%; in assay [1] (Zn Alone 39.1 mg/l), 12%; in assay [1] (Zn Alone 78.1 mg/l), 18%; in assay [1] (Zn Alone 156.3 mg/l), 23%; in assay [1] (Zn Alone 312.5 mg/l) it was 33%; in assay [1] (Zn Alone 625.0 mg/l), 74%. For the same compound, the “% Inhibition of Growth” value in assay [1] (Zn Alone 1250.0 mg/l) came out at 91%; in assay [1] (Zn Alone 2500.0 mg/l), 92%.
